According to paper PMC6401853, “Fabrication of Carbohydrate Chips Based on Polydopamine for Real-Time Determination of Carbohydrate–Lectin Interactions by QCM Biosensor” (Polymers, 2018):

Target: wheat germ agglutinin (WGA)
Assay: QCM biosensor kinetics, lectin over immobilized amino-GlcNAc derivative on polydopamine chip, […] fit
Format: binding

In the case of `CC(=O)N[C@H]1C(O)O[C@H](CO)[C@@H](O)[C@@H]1O` (stereo partly shown) [N-Acetylglucosamine], the Kd is reported as 47.2 nM.
